The target of series [1] is ORAI1/STIM1 (Rattus norvegicus, UniProt P84903+Q5M848). Nature of the series: Inhibition of ORAI/STIM1 in thapsigargin treated rat RBL2H3 cells assessed as reduction in store-operated calcium entry after 5 mins by fura-2-AM dye based assay. Format: cell-based.
A short description of series [2]: Selectivity ratio of ORAI/STIM1 in thapsigargin treated rat RBL2H3 cells to YFP-tagged TRPC3 (unknown origin) expressed in HEK293 cells. It counts as cell-based.
In series [3] the target is T1, Short transient receptor potential channel 3 (Homo sapiens, UniProt Q13507).
T1 sequence (Q13507 whole entry): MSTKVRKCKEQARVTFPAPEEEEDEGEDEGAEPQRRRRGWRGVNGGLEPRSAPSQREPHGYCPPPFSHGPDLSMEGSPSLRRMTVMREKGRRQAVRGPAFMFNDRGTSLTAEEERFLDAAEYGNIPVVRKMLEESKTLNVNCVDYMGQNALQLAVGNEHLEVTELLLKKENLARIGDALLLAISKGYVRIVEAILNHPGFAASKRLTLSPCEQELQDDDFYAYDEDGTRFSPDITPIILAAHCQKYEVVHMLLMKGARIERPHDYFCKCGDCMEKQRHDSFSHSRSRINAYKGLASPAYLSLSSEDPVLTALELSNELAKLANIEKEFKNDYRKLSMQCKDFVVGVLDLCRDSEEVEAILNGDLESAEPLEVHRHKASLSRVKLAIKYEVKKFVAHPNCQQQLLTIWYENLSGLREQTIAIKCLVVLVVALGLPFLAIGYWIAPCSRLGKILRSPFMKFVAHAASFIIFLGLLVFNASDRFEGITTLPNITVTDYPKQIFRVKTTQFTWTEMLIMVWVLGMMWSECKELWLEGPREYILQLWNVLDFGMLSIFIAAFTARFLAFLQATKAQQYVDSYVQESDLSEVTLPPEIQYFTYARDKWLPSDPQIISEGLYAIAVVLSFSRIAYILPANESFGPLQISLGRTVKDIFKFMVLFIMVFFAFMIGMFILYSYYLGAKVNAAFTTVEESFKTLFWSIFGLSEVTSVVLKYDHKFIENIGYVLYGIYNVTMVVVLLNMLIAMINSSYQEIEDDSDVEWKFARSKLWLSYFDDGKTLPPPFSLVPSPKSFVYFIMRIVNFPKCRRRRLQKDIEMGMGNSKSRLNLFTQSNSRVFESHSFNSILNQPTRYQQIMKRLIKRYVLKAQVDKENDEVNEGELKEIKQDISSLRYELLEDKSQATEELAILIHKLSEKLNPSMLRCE
Nature of the series: Inhibition of YFP-tagged TRPC3 (unknown origin) expressed in HEK293 cells assessed as reduction carbhocol-induced receptor operated Calcium influx after 5 mins by fura-2-AM dye based assay. It counts as cell-based.

The target of series [4] is T2, Short transient receptor potential channel 6 (Homo sapiens, UniProt Q9Y210).
T2 sequence (Q9Y210 whole entry): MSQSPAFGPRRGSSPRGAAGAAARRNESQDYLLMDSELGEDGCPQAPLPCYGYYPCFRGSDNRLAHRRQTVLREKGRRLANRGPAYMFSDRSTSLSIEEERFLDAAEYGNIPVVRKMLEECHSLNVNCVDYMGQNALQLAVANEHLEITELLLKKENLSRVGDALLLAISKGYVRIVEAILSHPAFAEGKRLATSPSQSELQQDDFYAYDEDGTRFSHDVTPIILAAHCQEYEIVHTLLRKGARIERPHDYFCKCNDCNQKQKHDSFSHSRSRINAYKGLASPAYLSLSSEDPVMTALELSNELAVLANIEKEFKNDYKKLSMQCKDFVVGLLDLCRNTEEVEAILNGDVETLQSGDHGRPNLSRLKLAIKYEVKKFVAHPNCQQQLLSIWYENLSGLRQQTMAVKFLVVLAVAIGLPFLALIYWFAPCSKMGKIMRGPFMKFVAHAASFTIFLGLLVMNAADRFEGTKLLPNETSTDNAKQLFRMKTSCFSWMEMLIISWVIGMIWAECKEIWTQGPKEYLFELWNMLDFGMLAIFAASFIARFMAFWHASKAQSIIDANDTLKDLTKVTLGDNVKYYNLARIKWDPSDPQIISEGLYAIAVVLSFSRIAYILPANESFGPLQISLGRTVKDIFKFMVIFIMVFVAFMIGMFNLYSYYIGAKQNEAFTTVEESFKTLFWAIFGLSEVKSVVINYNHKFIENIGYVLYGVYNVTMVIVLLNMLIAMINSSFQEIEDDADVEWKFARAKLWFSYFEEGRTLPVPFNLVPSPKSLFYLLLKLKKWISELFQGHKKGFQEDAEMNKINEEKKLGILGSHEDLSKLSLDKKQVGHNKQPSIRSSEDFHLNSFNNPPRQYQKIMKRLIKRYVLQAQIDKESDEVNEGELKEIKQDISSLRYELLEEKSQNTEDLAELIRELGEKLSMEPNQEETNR
The series is described as follows: Inhibition of human TRPC6 expressed in HEK293 cells assessed as reduction in OAG-induced calcium influx preincubated for 2 mins followed by OAG stimulation by fluo-4/AM dye based FLIPR assay. It counts as cell-based.

Series [5] addresses TRPC4/TRPC1 (Homo sapiens, UniProt P48995+Q9UBN4). Nature of the series: Antagonist activity at TRPC4/TRPC1 in human A498 cells assessed as reduction in englerin A-induced calcium entry preincubated for 30 mins followed by englerin A addition by fluorescence method. Format: cell-based.
Series [6] deals with TRPC6. Nature of the series: Inhibition of TRPC6 expressed in HEK293 cells coexpressing M5 receptor assessed as reduction in TRPC6-mediated calcium influx by fluorescence method.
The species entered for series [7] is Mus musculus. Nature of the series: Selectivity ratio of mouse TRPC4 beta expressed in HEK293 cells co-expressing mu-opioid receptor to IC50 for mouse TRPC6 expressed in HEK293 cells. Format: cell-based.
The target in series [8] is Acetylcholinesterase (Homo sapiens, UniProt P22303). Nature of the series: Inhibition of human recombinant acetylcholinesterase expressed in HEK-293 cells using AMTch as substrate after 30 mins by spectrophotometric method.
In series [9] the target is T3, Short transient receptor potential channel 6 (Mus musculus, UniProt Q61143).
T3 sequence (Q61143 whole entry): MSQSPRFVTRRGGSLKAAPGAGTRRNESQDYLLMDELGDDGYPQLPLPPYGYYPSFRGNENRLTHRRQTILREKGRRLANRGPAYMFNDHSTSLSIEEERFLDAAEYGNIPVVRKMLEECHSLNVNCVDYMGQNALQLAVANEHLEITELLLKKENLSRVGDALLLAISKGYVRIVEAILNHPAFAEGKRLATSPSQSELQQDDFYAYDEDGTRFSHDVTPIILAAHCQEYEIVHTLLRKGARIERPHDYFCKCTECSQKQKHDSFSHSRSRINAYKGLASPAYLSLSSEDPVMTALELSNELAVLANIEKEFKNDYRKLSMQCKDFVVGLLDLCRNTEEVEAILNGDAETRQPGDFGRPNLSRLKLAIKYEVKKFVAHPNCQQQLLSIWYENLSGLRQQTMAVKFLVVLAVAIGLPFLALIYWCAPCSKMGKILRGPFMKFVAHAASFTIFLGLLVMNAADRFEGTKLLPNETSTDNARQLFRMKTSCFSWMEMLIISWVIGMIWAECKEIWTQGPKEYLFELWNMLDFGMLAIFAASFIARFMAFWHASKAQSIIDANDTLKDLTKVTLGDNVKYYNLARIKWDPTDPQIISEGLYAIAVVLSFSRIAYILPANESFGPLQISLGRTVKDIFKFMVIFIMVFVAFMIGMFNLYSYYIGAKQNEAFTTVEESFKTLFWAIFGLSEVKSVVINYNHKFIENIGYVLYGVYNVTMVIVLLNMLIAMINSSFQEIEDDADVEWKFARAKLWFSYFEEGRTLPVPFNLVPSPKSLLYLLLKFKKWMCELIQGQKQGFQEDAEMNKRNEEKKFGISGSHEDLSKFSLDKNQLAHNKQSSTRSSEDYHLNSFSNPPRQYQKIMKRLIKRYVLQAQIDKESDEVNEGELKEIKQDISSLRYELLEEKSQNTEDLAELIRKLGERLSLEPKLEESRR
The series is described as follows: Inhibition of HA-tagged mouse TRPC6 expressed in HEK293 cells assessed as reduction in acetylcholine-induced membrane potential by FLIPR membrane potential dye based assay. Format: cell-based.

Series [10] concerns the target T4, Short transient receptor potential channel 4 (Mus musculus, UniProt Q9QUQ5).
T4 sequence (Q9QUQ5 whole entry): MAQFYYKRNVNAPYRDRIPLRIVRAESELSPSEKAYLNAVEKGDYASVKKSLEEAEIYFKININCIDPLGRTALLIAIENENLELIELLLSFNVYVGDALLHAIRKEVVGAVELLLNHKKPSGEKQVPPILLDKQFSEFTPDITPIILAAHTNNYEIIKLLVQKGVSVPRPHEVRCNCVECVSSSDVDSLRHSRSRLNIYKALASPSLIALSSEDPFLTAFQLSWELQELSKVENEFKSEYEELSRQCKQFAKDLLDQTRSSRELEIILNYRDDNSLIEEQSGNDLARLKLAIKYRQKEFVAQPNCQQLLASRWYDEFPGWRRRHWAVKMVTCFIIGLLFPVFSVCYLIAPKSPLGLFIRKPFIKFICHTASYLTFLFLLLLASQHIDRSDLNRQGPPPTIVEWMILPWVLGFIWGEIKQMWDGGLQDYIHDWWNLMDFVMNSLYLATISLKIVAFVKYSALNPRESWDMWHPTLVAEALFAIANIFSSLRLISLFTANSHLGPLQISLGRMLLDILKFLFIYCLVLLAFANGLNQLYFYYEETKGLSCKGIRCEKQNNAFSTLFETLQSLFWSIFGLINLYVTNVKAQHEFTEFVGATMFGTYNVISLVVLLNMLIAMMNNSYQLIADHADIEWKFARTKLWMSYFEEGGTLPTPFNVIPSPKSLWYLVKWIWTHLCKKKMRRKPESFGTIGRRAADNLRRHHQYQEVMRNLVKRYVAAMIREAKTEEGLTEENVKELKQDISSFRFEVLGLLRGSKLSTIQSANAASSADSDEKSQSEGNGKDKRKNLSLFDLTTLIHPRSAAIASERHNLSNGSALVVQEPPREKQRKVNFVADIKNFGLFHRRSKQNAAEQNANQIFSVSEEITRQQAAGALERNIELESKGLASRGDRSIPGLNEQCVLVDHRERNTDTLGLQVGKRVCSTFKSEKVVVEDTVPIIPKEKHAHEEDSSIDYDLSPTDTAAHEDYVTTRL
Nature of the series: Inhibition of mouse TRPC4 beta expressed in HEK293 cells co-expressing mu-opioid receptor assessed as reduction in DAMGO-induced intracellular calcium level in presence of mu-opioid receptor agonist DAMGO by Fluo-4AM dye based fluorescence assay. It counts as cell-based. Background: A change in cytosolic calcium serves as a functional read-out for many receptors and channels.

Series [11] in a line: Drug concentration in C57BL/6 mouse cerebrospinal fluid at 10 mg/kg, ip after 2 hrs by UPLC method. It counts as ADME, organism-based. The settings on record: read-out: Drug uptake.
Series [12] deals with T1, Short transient receptor potential channel 3. The series is described as follows: Inhibition of human TRPC3 expressed in HEK293 cells assessed as reduction in carbachol-induced membrane potential by FMP-2 dye based assay. Format: cell-based.
Series [13] is described as follows: Drug concentration in C57BL/6 mouse brain at 10 mg/kg, ip after 2 hrs by UPLC method. Format: ADME, organism-based. The following applies: read-out: Drug uptake.
Series [14] in a line: Drug concentration in C57BL/6 mouse serum at 10 mg/kg, ip after 2 hrs by UPLC method. Format: ADME, organism-based. The settings on record: read-out: Drug uptake.
The target of series [15] is T3, Short transient receptor potential channel 6. The series is described as follows: Inhibition of mouse TRPC6 expressed in HEK293 cells co-expressing M5 receptor assessed as reduction in carbachol-induced membrane potential by FMP-2 dye based assay. Format: cell-based.
Series [16] can be described thus: Inhibition of human TRPC1/mouse TRPC4 beta expressed in HEK293 cells co-expressing M2 receptor assessed as reduction in […] membrane potential by FMP-2 dye based assay. It counts as cell-based.

pIC50: −log10 of the molar value.

The results in this text go back to ChEMBL document CHEMBL4376804, “Review of Transient Receptor Potential Canonical (TRPC5) Channel Modulators and Diseases” (J Med Chem, 2019).

The term pIC50 denotes −log10 of the IC50, conventionally taken in molar units.

Sequence of TRPC4/TRPC1 (Q9UBN4 whole entry): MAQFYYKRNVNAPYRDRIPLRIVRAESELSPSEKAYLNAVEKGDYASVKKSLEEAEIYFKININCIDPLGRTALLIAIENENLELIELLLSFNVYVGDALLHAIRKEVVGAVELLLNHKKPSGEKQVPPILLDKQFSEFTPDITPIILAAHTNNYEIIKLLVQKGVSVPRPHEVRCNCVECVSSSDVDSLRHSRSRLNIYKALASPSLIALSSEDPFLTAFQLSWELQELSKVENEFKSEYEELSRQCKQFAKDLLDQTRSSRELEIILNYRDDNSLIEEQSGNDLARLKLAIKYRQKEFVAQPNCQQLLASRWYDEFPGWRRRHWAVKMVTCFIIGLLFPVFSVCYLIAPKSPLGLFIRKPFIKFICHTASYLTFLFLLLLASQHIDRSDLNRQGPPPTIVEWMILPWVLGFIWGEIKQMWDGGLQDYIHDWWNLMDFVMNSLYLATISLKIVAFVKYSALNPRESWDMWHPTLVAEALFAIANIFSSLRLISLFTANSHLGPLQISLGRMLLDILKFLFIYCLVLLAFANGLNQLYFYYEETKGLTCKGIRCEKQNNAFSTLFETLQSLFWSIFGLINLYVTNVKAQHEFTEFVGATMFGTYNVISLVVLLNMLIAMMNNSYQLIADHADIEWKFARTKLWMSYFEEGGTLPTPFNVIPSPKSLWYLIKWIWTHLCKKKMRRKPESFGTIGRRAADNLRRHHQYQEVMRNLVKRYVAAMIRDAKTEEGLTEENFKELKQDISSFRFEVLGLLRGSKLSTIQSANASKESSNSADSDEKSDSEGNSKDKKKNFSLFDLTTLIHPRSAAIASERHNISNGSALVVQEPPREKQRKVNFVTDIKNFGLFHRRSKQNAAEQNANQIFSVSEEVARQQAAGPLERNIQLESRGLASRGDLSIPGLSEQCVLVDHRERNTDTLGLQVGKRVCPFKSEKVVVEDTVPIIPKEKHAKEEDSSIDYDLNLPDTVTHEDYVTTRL
Sequence of TRPC4/TRPC1 (P48995 whole entry): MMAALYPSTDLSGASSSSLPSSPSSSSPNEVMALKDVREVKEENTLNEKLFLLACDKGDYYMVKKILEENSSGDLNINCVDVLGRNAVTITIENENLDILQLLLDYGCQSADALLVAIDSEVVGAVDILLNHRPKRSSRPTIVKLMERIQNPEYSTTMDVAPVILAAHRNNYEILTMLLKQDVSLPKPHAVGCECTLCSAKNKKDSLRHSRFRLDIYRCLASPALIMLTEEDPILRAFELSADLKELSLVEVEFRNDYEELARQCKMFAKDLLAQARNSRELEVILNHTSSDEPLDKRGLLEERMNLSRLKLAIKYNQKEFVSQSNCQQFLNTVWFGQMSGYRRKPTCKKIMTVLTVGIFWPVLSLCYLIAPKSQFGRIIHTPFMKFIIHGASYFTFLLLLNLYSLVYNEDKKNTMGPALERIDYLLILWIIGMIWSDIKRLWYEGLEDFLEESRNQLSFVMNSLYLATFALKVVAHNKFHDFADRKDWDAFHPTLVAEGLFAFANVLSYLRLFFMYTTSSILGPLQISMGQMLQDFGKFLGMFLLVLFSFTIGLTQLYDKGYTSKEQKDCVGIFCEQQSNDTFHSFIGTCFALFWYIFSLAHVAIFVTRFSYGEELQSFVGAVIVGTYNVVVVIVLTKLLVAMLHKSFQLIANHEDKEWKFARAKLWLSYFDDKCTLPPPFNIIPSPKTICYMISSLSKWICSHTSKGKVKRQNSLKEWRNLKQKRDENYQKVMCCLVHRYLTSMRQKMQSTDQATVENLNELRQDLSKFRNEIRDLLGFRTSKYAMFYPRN
Sequence of ORAI1/STIM1 (P84903 whole entry): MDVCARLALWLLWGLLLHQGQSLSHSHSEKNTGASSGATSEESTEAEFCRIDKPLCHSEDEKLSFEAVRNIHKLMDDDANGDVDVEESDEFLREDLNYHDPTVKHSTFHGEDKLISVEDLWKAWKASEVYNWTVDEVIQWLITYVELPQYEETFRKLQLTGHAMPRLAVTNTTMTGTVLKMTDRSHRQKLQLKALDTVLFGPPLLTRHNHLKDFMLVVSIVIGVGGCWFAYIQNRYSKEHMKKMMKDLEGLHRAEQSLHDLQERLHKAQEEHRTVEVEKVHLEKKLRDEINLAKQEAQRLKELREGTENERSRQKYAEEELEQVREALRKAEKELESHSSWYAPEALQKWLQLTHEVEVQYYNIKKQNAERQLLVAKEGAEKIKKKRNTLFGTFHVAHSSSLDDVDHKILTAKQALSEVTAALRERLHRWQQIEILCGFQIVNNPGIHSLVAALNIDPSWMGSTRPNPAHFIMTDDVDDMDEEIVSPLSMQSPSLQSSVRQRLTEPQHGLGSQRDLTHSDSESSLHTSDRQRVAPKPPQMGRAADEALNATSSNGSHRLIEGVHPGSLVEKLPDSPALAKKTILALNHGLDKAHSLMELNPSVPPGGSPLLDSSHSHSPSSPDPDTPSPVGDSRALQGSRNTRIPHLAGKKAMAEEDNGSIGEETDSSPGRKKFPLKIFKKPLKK
Sequence of ORAI1/STIM1 (Q5M848 whole entry): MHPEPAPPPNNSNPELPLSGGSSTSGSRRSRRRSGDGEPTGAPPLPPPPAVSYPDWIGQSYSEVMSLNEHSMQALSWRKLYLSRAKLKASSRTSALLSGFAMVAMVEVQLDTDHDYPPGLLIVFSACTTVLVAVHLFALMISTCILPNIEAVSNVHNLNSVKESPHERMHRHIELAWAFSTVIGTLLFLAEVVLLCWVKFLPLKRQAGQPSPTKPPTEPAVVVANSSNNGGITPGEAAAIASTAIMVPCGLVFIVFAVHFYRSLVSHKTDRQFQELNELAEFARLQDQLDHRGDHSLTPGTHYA
Sequence of Acetylcholinesterase (P22303 whole entry): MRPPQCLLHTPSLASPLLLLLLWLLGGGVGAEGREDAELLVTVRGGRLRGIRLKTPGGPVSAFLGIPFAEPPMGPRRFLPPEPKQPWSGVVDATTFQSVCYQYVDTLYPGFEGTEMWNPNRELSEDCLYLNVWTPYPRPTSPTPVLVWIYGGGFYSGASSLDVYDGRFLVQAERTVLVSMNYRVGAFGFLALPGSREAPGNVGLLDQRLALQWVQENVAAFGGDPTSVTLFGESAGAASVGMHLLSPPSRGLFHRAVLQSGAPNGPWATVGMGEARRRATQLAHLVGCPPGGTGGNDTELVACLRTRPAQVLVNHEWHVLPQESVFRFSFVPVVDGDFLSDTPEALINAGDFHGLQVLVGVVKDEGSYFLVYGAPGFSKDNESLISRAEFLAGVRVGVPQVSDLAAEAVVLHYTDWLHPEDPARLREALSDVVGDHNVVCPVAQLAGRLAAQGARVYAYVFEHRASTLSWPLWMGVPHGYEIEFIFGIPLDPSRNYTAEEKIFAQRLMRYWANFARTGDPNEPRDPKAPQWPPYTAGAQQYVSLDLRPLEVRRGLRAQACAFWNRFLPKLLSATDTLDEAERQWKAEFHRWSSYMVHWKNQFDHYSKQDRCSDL

As to `O=C(Nc1ccc(-n2nc(C(F)(F)F)cc2C(F)(F)F)cc1)c1ccncc1F`, the negative-log IC50 (pIC50) in [1] is 6.31; in series [3], 4.73. Moreover, the Ratio IC50 in [2] is 37.

Turning to `C=C[C@](C)(O)CC[C@H]1C(=C)C[C@H](OC(N)=O)[C@H]2C(C)(C)CCC[C@]12C`, the negative logarithm of the IC50 (pIC50) in series [4] is 6.77.

On to `CC(C)[C@]12C[C@@H](OCCO)[C@](C)(O1)[C@@H]1CC[C@@H](C)[C@H]1[C@@H]2OC(=O)/C=C/c1ccccc1`, for which the pIC50 in series [5] is 7.21.

`C=C[C@@](C)(CC[C@H]1C(=C)C[C@H](OC(N)=O)[C@H]2C(C)(C)CCC[C@]12C)OC(C)=O`: the pIC50 in series [4] was 6.60.

For the compound `Cc1nn2c(O)cc(C3CCN(C(=O)OC(C)(C)C)CC3)nc2c1-c1ccc(F)cc1`, the negative logarithm of the IC50 (pIC50) in [6] is 5.08.

For `Cc1cc(N2CCCCC2)nc2ccccc12`, in series [7], the Ratio IC50 stood at 19. In addition, the pIC50 is 6.08 in series [8], 4.75 in series [9] and 6.02 in [10].

As for `CCCCNc1nc2ccccc2[nH]1`, the concentration at 2 h in series [11] worked out at 335 ng/mL; in series [13] it was 1100 ng/g; in series [14] it was 2260 ng/mL. Besides, the values for the pIC50 in [12], in series [15] and in series [16] were 4.31, 4.22 and 5.08, respectively.
